Assay results taken from patent US12697403B2, “Small molecules for dual function positron emission tomography (PET) and cell suicide switches” (THE TRUSTEES OF THE UNIVERSITY OF PENNSYLVANIA, priority 2017, dated 2026).

What was measured:
[1] = molecular target: F36V-FKBP (Homo sapiens, UniProt P62942, F37V); settings: cited from earlier work; for binding to mutant F36V-FKBP relative to the wild-type protein: F36V-FKBP versus wild-type FKBP
[2] = tested on: iCasp9 modified T cells; settings: cited from earlier work
[3] = tested on: iCasp9 in CAR T cells directed against desmoglein-3; assay: Caspase activation / killing of iCasp9 CAR T cells by AP20187; assay type: cell-based; settings: nontransduced cells (NTD) and cells without iC9
From the text: (§1) The iCasp9 system has been previously incorporated into CAR T cells directed against desmoglein-3 by others for studying pemphigus. T cells were transduced with two different CARs containing iCasp9 (iC9) and one CAR without iC9. The inducible caspase 9 was activated by treatment with varying concentrations of AP20187, a chemical inducer of dimerization which is an analog of AP1903 (FIG. 9). Of note is that the fraction of dead cells is less than 100% because not all of the cells were transduced. The IC50 of AP20187 is <0.1 nM. Nontransduced cells (NTD) and cells without iC9 were not killed by AP20187.

[4] = molecular target: T1, iCasp9 in CAR T cells directed against desmoglein-3 (Homo sapiens, UniProt P55211+P62942, F37V); assay: as above; assay type: cell-based; settings: T cells transduced with CARs containing iCasp9; read-out: IC50 (fraction of dead cells)
T1 construct: expressed in transfected cells; host or cells: T cells
From the text: as §1

[5] = molecular target: T2, MDA-MB231 cells transduced with DHFR-iCasp9 (Escherichia coli, UniProt P0ABQ4); settings: for activation of the DHFR-iCasp9 suicide gene: MDA-MB231 cells transduced with DHFR-15-iCasp9 or DHFR-18-iCasp9
T2 sequence (P0ABQ4 1-159): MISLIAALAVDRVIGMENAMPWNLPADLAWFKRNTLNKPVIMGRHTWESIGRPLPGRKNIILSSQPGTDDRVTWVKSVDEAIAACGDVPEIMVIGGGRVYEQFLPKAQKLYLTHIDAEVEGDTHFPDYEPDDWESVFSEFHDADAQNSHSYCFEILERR
T2 sequence (P55211 135-416 partner): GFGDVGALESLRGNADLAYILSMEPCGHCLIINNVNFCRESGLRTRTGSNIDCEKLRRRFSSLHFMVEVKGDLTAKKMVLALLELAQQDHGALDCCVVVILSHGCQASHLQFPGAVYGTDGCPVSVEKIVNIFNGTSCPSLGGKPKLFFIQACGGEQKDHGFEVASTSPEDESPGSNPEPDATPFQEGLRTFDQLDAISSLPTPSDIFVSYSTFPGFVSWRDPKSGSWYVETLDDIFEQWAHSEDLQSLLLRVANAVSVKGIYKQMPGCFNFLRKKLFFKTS
Procedure: (§2) Procedure for DHFR-iCasp9 Cell Kill Assay with Bis-TMP Compounds: • Cell culture • Cell lines (MDA-MB231-luc transduced with DHFR-icasp9 with different linker lengths) were cultured in DMEM (Gibco) with 10% fetal bovine serum (Sigma), 100 U/mL penicillin and 100 ug/mL streptomycin (Invitrogen). • Incubation is done at 37° C. with 5% CO2 • Cell assay • Cells were plated on 96 well black plate, 3×10^4 cells/well. • The next day, cells were treated with varying concentrations of Bis-TMP compounds (Bis-TMP-#). • Cells were incubated for 24 hours and luciferin was added (120 ug/mL), after which bioluminescence was measured using Perkin Elmer Enspire Multi-mode Plate reader. Luminescence Assay with HCT116-L106P-tsLuc Cells Following Treatment with Shield-1 Compounds: • Day 1: Plate 50,000 cells/50 uL/well on 96 well black plate. • Day 2: • Add compounds (FP-Shield-1, control Shield-1 in 50 uL volume). • Incubate for 24 h at 37° C. with CO2. • Day 3: Add luciferin and read immediately.

[6] = tested on: luciferase fused to the FKBP12 L106P destabilizing domain (L106P-tsLuc); assay: Luminescence assay with HCT116-L106P-tsLuc cells; assay type: cell-based; settings: HCT116 cells expressing L106P-tsLuc, 3 nM to 10 uM
Procedure: as §2

[7] = tested on: LID system (F36V-FKBP with degron) fused to CAR in T cells; settings: preclinical studies; cited from earlier work

## CC[C@H](C(=O)N1CCCC[C@H]1C(=O)O[C@H](CCc1ccc(OC)c(OC)c1)c1cccc(OCC(=O)NCCNC(=O)COc2cccc([C@@H](CCc3ccc(OC)c(OC)c3)OC(=O)[C@@H]3CCCCN3C(=O)[C@@H](CC)c3cc(OC)c(OC)c(OC)c3)c2)c1)c1cc(OC)c(OC)c(OC)c1 [AP1903]
[1]
  binding to mutant F36V-FKBP relative to the wild-type protein: greater than three orders of magnitude
[2]; given to humans
  adverse events in humans: without any reported serious adverse events
[2]; patients with GVHD, single dose, within 30 min after administration
  modified T cells eliminated: more than 90%
[2]; patients with GVHD, single dose
  graft-versus-host disease outcome: terminated without abrogating immune reconstitution

## CC[C@H](C(=O)N1CCCC[C@H]1C(=O)O[C@H](CCc1ccc(OC)c(OC)c1)c1cccc(OCC(=O)NCC(CNC(=O)COc2cccc([C@@H](CCc3ccc(OC)c(OC)c3)OC(=O)[C@@H]3CCCCN3C(=O)[C@@H](CC)c3cc(OC)c(OC)c(OC)c3)c2)CN(C)C)c1)c1cc(OC)c(OC)c(OC)c1 [AP20187]
[3]
  killing of control cells: not killed
[4]
  IC50: < 0.1 nM

## COc1cc(Cc2cnc(N)nc2N)cc(OC)c1OCCCCC(=O)NCCCOCCCNC(=O)CCCCOc1c(OC)cc(Cc2cnc(N)nc2N)cc1OC [Bis-TMP-21, N,N′-(oxybis(propane-3,1-diyl))bis(5-(4-((2,4-diaminopyrimidin-5-yl)methyl)-2,6-dimethoxyphenoxy)pentanamide)]
[5]
  activation of the DHFR-iCasp9 suicide gene: potent activation of the DHFR-iCasp9 suicide gene at low nM concentrations

## COc1cc(Cc2cnc(N)nc2N)cc(OC)c1OCCCCC(=O)NCCCOCCOCCOCCCNC(=O)CCCCOc1c(OC)cc(Cc2cnc(N)nc2N)cc1OC [Bis-TMP-27, N,N′-(((oxybis(ethane-2,1-diyl))bis(oxy))bis(propane-3,1-diyl))bis(5-(4-((2,4-diaminopyrimidin-5-yl)methyl)-2,6-dimethoxyphenoxy)pentanamide)]
[5]
  activation of the DHFR-iCasp9 suicide gene: potent activation of the DHFR-iCasp9 suicide gene at low nM concentrations
[5]; MDA-MB231 cells transduced with DHFR-18-iCasp9, 24 hours
  cells killed: ~ 70%
[5]; read-out: IC50 of cell killing, MDA-MB231 cells transduced with DHFR-18-iCasp9, 24 hours
  IC50: ~5 nM

## CC[C@H](C(=O)N1CCCC[C@H]1C(=O)O[C@H](CCc1ccc(OC)c(OC)c1)c1cccc(OCCN2CCOCC2)c1)c1cc(OC)c(OC)c(OC)c1 [Shield-1]
[6]
  protein stabilization (luminescence): equivalent protein stabilization when compared to the literature
[1]
  binding to mutant F36V-FKBP relative to the wild-type protein: greater than three orders of magnitude
[1]; read-out: IC50 for the mutant protein F36V-FKBP
  IC50: 3.3 nM
[7]
  IC50 for control of CAR expression: in the nM range
